# US20230355605A1, “DRUG FOR ENHANCING FIBRINOLYTIC SYSTEM, AND USE THEREFOR” (priority 2020, published 2023)
# How the values were obtained:
# pregnant rats = experiment: Embryo-fetal developmental toxicity study; assay type: in vivo, rat; conditions: oral, days 7 to 17 of gestation
# Experimental: The effect of oral administration of the present compound on embryo-fetal development was examined using rats. Specifically, the present compound was orally administered to pregnant rats from implantation to closure of the hard palate (days 7 to 17 of gestation), and the effect on the mothers, and embryos and fetuses was examined. Furthermore, the plasma concentration of the present compound after administration was measured, and its change was examined. During the study period, the general conditions of all of the animals were observed, and their body weights were measured; in the toxicity group, food consumption was measured; a Cesarean section test was performed on day 20 of gestation. Thereafter, fetal visceral and skeletal specimens were prepared, and a fetal examination was performed.
# male Crl:CD(SD) rats = experiment: Effect on central nervous system (functional observational battery); assay type: in vivo, rat; conditions: single oral dose, up to 300 mg/kg
# Experimental: The effect of the present compound on the central nervous system was examined by the functional observational battery (FOB) in rats, using male Crl:CD(SD) rats. Specifically, the present compound was orally administered to the rats in a single dose, and the rats were observed before administration and 0.5, 1, 2, 4, 8, and 24 hours after administration. To a control group (six rats), a 0.5 w/v% carmellose sodium aqueous solution (vehicle) was administered instead of the present compound in the same manner. […] Thus, it was considered that the present compound has no effect on the central nervous system up to a dosage of 300 mg/kg in single oral dose administration using rats.
# t-PA = t-PA activity in blood, phase I repeated oral dose study; assay type: in vivo, human
# Experimental: The pharmacological activities (PAI-1 activity and t-PA activity) were evaluated using blood collected from the subjects before and after administration of the present compound or the placebo as test samples. Blood was collected before administration and 2, 4, and 8 hours after administration on the first day of the experiment (day 1) and day 7 after the start of the experiment, and on the other days, blood was collected once a day before administration (only before administration on days 2 to 6, day 8, and day 11 after the start of administration).
# After collecting blood samples from the subjects, the samples were treated with 0.5 M sodium citrate (pH of 4.3) and centrifuged at 4° C., 2,500 g for 15 minutes to obtain plasma. The collected plasma was used for measurement of t-PA activity and stored frozen at -80° C. until measurement.
# The t-PA activity was measured using a ZYMUPHEN tPA Activity kit (produced by HYPHEN BioMed). In this system, a plasma sample collected from a subject is reacted with human plasminogen to form plasmin by the action of tPA, the plasmin is reacted with a substrate specific to plasmin, and pNA, which is a degradation product produced, is measured by the absorbance at a wavelength of 405 nm with a plate reader.
# BCR-ABL^IS = experiment: Phase II long-term administration study with TKI in chronic-phase CML: efficacy against CML; assay type: in vivo, human; conditions: for Cumulative number of patients who achieved a DMR / Cumulative rate of patients who achieved a DMR: with TKI
# Experimental: Further, the efficacy of the combined use of the present compound and the TKI against CML was evaluated.
# The present compound was orally administered after breakfast to chronic-phase CML patients (33 patients) aged 20 or older and younger than 80 who had been treated orally with the TKI for 1 year or more. The dosage of the present compound was started at 150 mg/day. […] No patients dropped out or were withdrawn from the study, and all of the patients were included in analysis (SAS analysis, FAS analysis, and PPS analysis).
# The efficacy against CML was evaluated from the following two points: • (1) cumulative achievement rate of CML patients who reached a DMR (BCR-ABL^IS: 0.0032% or less) • (2) change in BCR-ABL^IS
# Within 28 days before the start of administration of the present compound, and 4, 8, 12, 24, 36, and 48 weeks after the start of administration of the present compound or at discontinuation, the investigator collected peripheral blood and conducted a test using a BCR-ABL^IS quantitative PCR kit (produced by Sysmex Corporation) to obtain results (IS%, ABL copy number, and BCR-ABL copy number).
compound,measurement,setting,value
"O=C(Nc1ccc(Cl)cc1C(=O)[O-])c1cccc(-c2cccc3cccnc23)c1.[Na+] [present compound, sodium 5-chloro-2-({ [3-(quinolin-8-yl)phenyl]carbonyl}amino)benzoate]","effect on pregnancy, embryos and fetuses",pregnant rats,"no effect on maintenance of pregnancy, no embryolethal effect, no fetal growth suppressive effect, and no teratogenic effect"
same,no-observed-adverse-effect level for embryos and fetuses,pregnant rats,1000 mg/kg/day
same,no-observed-adverse-effect level for the mothers,pregnant rats,1000 mg/kg/day
same,effect on the central nervous system,male Crl:CD(SD) rats,no effect
same,t-PA activity in blood vs placebo,"t-PA; 60 mg/day oral, days 1 and 7",neither PAI-1 activity nor t-PA activity was different
same,time after administration of maximal increase in t-PA activity,t-PA; 120 mg/day oral,8 h
same,t-PA activity in blood,"t-PA; 120 mg/day oral, days 1 and 7",increased
same,Cumulative number of patients who achieved a DMR,"BCR-ABL^IS; 4 weeks after the start of administration, 33 patients",5
same,Cumulative rate of patients who achieved a DMR,BCR-ABL^IS; 4 weeks after the start of administration,15.2%
same,Cumulative number of patients who achieved a DMR,"BCR-ABL^IS; 8 weeks after the start of administration, 33 patients",9
same,Cumulative rate of patients who achieved a DMR,BCR-ABL^IS; 8 weeks after the start of administration,27.3%
same,Cumulative number of patients who achieved a DMR,"BCR-ABL^IS; 12 weeks after the start of administration, 33 patients",9
same,Cumulative rate of patients who achieved a DMR,BCR-ABL^IS; 12 weeks after the start of administration,27.3%
same,change in BCR-ABL^IS vs baseline,"BCR-ABL^IS; 15 patients, 150 mg/day continuous, weeks 12 and 24",significant decrease
same,change in BCR-ABL^IS vs baseline,"BCR-ABL^IS; 18 patients, 150 mg/day to 180 mg/day increase, week 48",significant decrease
same,Cumulative number of patients who achieved a DMR,"BCR-ABL^IS; 24 weeks after the start of administration, 33 patients",10
same,Cumulative rate of patients who achieved a DMR,BCR-ABL^IS; 24 weeks after the start of administration,30.3%
same,change in BCR-ABL^IS vs baseline,"BCR-ABL^IS; 33 patients, from week 12 onward, Wilcoxon test",significant decrease
same,Cumulative number of patients who achieved a DMR,"BCR-ABL^IS; 36 weeks after the start of administration, 33 patients",11
same,Cumulative rate of patients who achieved a DMR,BCR-ABL^IS; 36 weeks after the start of administration,33.3%
same,Cumulative number of patients who achieved a DMR,"BCR-ABL^IS; 48 weeks after the start of administration, 33 patients",11
same,Cumulative rate of patients who achieved a DMR,BCR-ABL^IS; 48 weeks after the start of administration,33.3%
same,cumulative DMR achievement rate,"BCR-ABL^IS; from week 36 onward, 150 to 180 mg/day with TKI",33.3%
same,patients who achieved a DMR,"BCR-ABL^IS; of the 33 patients, 150 to 180 mg/day with TKI",11 patients
same,BCR-ABL^IS level (mean ± standard deviation),"BCR-ABL^IS; week 4, 33 patients, P = 0.1222",0.0134±0.01301%
same,BCR-ABL^IS level (mean ± standard deviation),"BCR-ABL^IS; week 8, 33 patients, P = 0.0929",0.0129±0.01569%
same,BCR-ABL^IS level (mean ± standard deviation),"BCR-ABL^IS; week 12, 33 patients, P = 0.0228",0.0133±0.02012%
same,BCR-ABL^IS level (mean ± standard deviation),"BCR-ABL^IS; week 24, 33 patients, P = 0.0427",0.0149±0.02596%
same,BCR-ABL^IS level (mean ± standard deviation),"BCR-ABL^IS; week 36, 33 patients, P = 0.0304",0.0152±0.03427%
same,BCR-ABL^IS level (mean ± standard deviation),"BCR-ABL^IS; week 48, 33 patients, P = 0.0124",0.0210±0.06718%
